Measurements published in publication PMC5218480 (PLoS ONE, 2017).

Tested on: MV-4-11 cells
Assay: Gene expression microarray analysis (Affymetrix PrimeView) and GSEA
Assay type: cell-based, human
Parameters: RFU PODN (11730768_x_at) / Fold change /veh PODN (11730768_x_at) / RFU LINC00158 (11744669_a_at) / Fold change /veh LINC00158 (11744669_a_at) / RFU DUSP10 (11751237_a_at) / Fold change /veh DUSP10 (11751237_a_at) / RFU ID3 (11757404_x_at) / Fold change /veh ID3 (11757404_x_at) / RFU PLEKHG5 (11737974_s_at) / Fold change /veh PLEKHG5 (11737974_s_at) / RFU LRRC4B (11730491_at) / Fold change /veh LRRC4B (11730491_at) / RFU GIMAP4 (11747438_a_at) / Fold change /veh GIMAP4 (11747438_a_at) / RFU KRT8 (11758183_x_at) / Fold change /veh KRT8 (11758183_x_at) / RFU CNN1 (11734310_a_at) / Fold change /veh CNN1 (11734310_a_at) / RFU VPS37D (11726825_at) / Fold change /veh VPS37D (11726825_at) / RFU C10orf10 (11716522_x_at) / Fold change /veh C10orf10 (11716522_x_at) / RFU KIR2DL2 /// KIR2DL4 /// KIR2DL5A /// KIR2DL5B /// KIR2DS1 /// KIR2DS2 /// KIR2DS3 /// KIR2DS4 /// KIR3DL3 /// KIR3DL3 /// KIR3DS1 (11738374_at) / Fold change /veh KIR2DL2 /// KIR2DL4 /// KIR2DL5A /// KIR2DL5B /// KIR2DS1 /// KIR2DS2 /// KIR2DS3 /// KIR2DS4 /// KIR3DL3 /// KIR3DL3 /// KIR3DS1 (11738374_at) / RFU C1QL1 (11718748_at) / Fold change /veh C1QL1 (11718748_at) / RFU TMPRSS4 (11747572_a_at) / Fold change /veh TMPRSS4 (11747572_a_at) / RFU HAMP (11756126_x_at) / Fold change /veh HAMP (11756126_x_at) / RFU RNFT2 (11725882_a_at) / Fold change /veh RNFT2 (11725882_a_at) / RFU NR4A2 (11747474_a_at) / Fold change /veh NR4A2 (11747474_a_at) / RFU ABCC12 (11746883_a_at) / Fold change /veh ABCC12 (11746883_a_at) / RFU TMEM136 (11760407_x_at) / Fold change /veh TMEM136 (11760407_x_at) / RFU CLDN22 /// WWC2 (11732394_at) / Fold change /veh CLDN22 /// WWC2 (11732394_at) / RFU HLA-DPB1 (11760878_x_at) / Fold change /veh HLA-DPB1 (11760878_x_at) / RFU SPINT1 (11716480_a_at) / Fold change /veh SPINT1 (11716480_a_at) / RFU GAP43 (11754022_s_at) / Fold change /veh GAP43 (11754022_s_at) / RFU A4GNT (11735810_at) / Fold change /veh A4GNT (11735810_at) / RFU PRB3 (11715151_x_at) / Fold change /veh PRB3 (11715151_x_at) / RFU TUBB4B (11761932_at) / Fold change /veh TUBB4B (11761932_at) / RFU CAPN14 (11732068_a_at) / Fold change /veh CAPN14 (11732068_a_at) / RFU TMCC2 (11721928_a_at) / Fold change /veh TMCC2 (11721928_a_at) / RFU IRGQ (11745062_a_at) / Fold change /veh IRGQ (11745062_a_at) / RFU FAM174B (11720279_a_at) / Fold change /veh FAM174B (11720279_a_at) / RFU TMPRSS4 (11748680_a_at) / Fold change /veh TMPRSS4 (11748680_a_at) / RFU FAM212B (11763350_a_at) / Fold change /veh FAM212B (11763350_a_at) / RFU PLEKHG5 (11743358_a_at) / Fold change /veh PLEKHG5 (11743358_a_at) / RFU ZSCAN30 (11745921_a_at) / Fold change /veh ZSCAN30 (11745921_a_at) / RFU CMKLR1 (11741424_a_at) / Fold change /veh CMKLR1 (11741424_a_at) / RFU LOC101060620 /// MAPK8IP1 (11723275_at) / Fold change /veh LOC101060620 /// MAPK8IP1 (11723275_at) / RFU SPTSSB (11747773_x_at) / Fold change /veh SPTSSB (11747773_x_at) / RFU PRSS12 (11739890_at) / Fold change /veh PRSS12 (11739890_at) / RFU BIN1 (11741810_x_at) / Fold change /veh BIN1 (11741810_x_at) / RFU WNT11 (11732464_a_at) / Fold change /veh WNT11 (11732464_a_at) / RFU C10orf10 (11716521_a_at) / Fold change /veh C10orf10 (11716521_a_at) / RFU C5orf56 (11738089_at) / Fold change /veh C5orf56 (11738089_at) / RFU CYB561 (11721691_x_at) / Fold change /veh CYB561 (11721691_x_at) / RFU ANKRD19P (11752326_a_at) / Fold change /veh ANKRD19P (11752326_a_at) / RFU OR2T12 /// OR2T33 /// OR2T8 (11738714_s_at) / Fold change /veh OR2T12 /// OR2T33 /// OR2T8 (11738714_s_at) / RFU VCAN (11748164_a_at) / Fold change /veh VCAN (11748164_a_at) / RFU JSRP1 (11732532_at) / Fold change /veh JSRP1 (11732532_at) / RFU KRTAP10-11 (11738290_x_at) / Fold change /veh KRTAP10-11 (11738290_x_at) / RFU MYO3A (11730013_a_at) / Fold change /veh MYO3A (11730013_a_at) / RFU EBF3 (11725865_a_at) / Fold change /veh EBF3 (11725865_a_at) / RFU CAMK2N1 (11719241_x_at) / Fold change /veh CAMK2N1 (11719241_x_at) / RFU C5orf56 (11738088_a_at) / Fold change /veh C5orf56 (11738088_a_at) / RFU OLFML3 (11715873_a_at) / Fold change /veh OLFML3 (11715873_a_at) / RFU LOC100653217 /// NTM (11731650_a_at) / Fold change /veh LOC100653217 /// NTM (11731650_a_at) / RFU MAPK11 (11762145_a_at) / Fold change /veh MAPK11 (11762145_a_at) / RFU FIZ1 (11724087_x_at) / Fold change /veh FIZ1 (11724087_x_at) / RFU OASL (11726364_x_at) / Fold change /veh OASL (11726364_x_at) / RFU SOX15 (11748057_x_at) / Fold change /veh SOX15 (11748057_x_at) / RFU CD79A (11719716_a_at) / Fold change /veh CD79A (11719716_a_at) / RFU HIST1H1D (11736915_at) / Fold change /veh HIST1H1D (11736915_at) / RFU CASKIN2 (11723855_a_at) / Fold change /veh CASKIN2 (11723855_a_at) / RFU LOC730098 (11760151_x_at) / Fold change /veh LOC730098 (11760151_x_at) / RFU OR4N2 (11742367_at) / Fold change /veh OR4N2 (11742367_at) / RFU PRRT2 (11749266_a_at) / Fold change /veh PRRT2 (11749266_a_at) / RFU SNX32 (11753110_a_at) / Fold change /veh SNX32 (11753110_a_at) / RFU CDHR5 (11726645_a_at) / Fold change /veh CDHR5 (11726645_a_at) / RFU RCAN1 (11760418_a_at) / Fold change /veh RCAN1 (11760418_a_at) / RFU FAM167A (11723789_a_at) / Fold change /veh FAM167A (11723789_a_at) / RFU FAM26E (11764081_at) / Fold change /veh FAM26E (11764081_at) / RFU ISYNA1 (11749810_s_at) / Fold change /veh ISYNA1 (11749810_s_at) / RFU ACY1 (11761880_at) / Fold change /veh ACY1 (11761880_at) / RFU 11764098_at / Fold change /veh 11764098_at / RFU SAMD14 (11745864_x_at) / Fold change /veh SAMD14 (11745864_x_at) / RFU NPB (11741838_a_at) / Fold change /veh NPB (11741838_a_at) / RFU TMPRSS6 (11731388_a_at) / Fold change /veh TMPRSS6 (11731388_a_at) / RFU KRTAP10-2 (11738614_at) / Fold change /veh KRTAP10-2 (11738614_at) / RFU ARHGAP8 /// PRR5-ARHGAP8 (11727945_x_at) / Fold change /veh ARHGAP8 /// PRR5-ARHGAP8 (11727945_x_at) / RFU KRTAP5-7 /// NADSYN1 (11734609_at) / Fold change /veh KRTAP5-7 /// NADSYN1 (11734609_at) / RFU RASL12 (11751679_a_at) / Fold change /veh RASL12 (11751679_a_at) / RFU CDKN2B (11736163_a_at) / Fold change /veh CDKN2B (11736163_a_at) / RFU PRF1 (11729649_at) / Fold change /veh PRF1 (11729649_at) / RFU, ZNF638 /// ZNF638-IT1 / Fold change vs veh, ZNF638 /// ZNF638-IT1 / RFU, PANK3 / Fold change vs veh, PANK3 / RFU, SH3YL1 / Fold change vs veh, SH3YL1 / RFU, ZEB2 / Fold change vs veh, ZEB2 / RFU, NRIP1 / Fold change vs veh, NRIP1 / RFU, PTTG1IP / Fold change vs veh, PTTG1IP / RFU, CAPN2 / Fold change vs veh, CAPN2 / RFU, MED14 / Fold change vs veh, MED14 / RFU, SNORA58 / Fold change vs veh, SNORA58 / RFU, C1orf63 / Fold change vs veh, C1orf63 / RFU, LRRFIP1 / Fold change vs veh, LRRFIP1 / RFU, NDUFAF7 / Fold change vs veh, NDUFAF7 / RFU, SLC12A2 / Fold change vs veh, SLC12A2 / RFU, IBTK / Fold change vs veh, IBTK / RFU, ESF1 / Fold change vs veh, ESF1 / Fold change vs veh, TMEM50B / RFU, TAOK1 / Fold change vs veh, TAOK1 / RFU, ACBD3 / Fold change vs veh, ACBD3 / RFU, TMA16 / Fold change vs veh, TMA16 / RFU, RWDD3 / Fold change vs veh, RWDD3 / RFU, BCAT1 / Fold change vs veh, BCAT1 / RFU, EDEM3 / Fold change vs veh, EDEM3 / RFU, TMEM33 / Fold change vs veh, TMEM33 / RFU, WDR75 / Fold change vs veh, WDR75 / RFU, AHCTF1 / Fold change vs veh, AHCTF1 / RFU, TFRC / Fold change vs veh, TFRC / RFU, ZDHHC17 / Fold change vs veh, ZDHHC17 / RFU, NOM1 / Fold change vs veh, NOM1 / RFU, ARL8B / Fold change vs veh, ARL8B / RFU, ZBTB11 / Fold change vs veh, ZBTB11 / RFU, TAMM41 / Fold change vs veh, TAMM41 / RFU, KIAA1704 /// LOC100996395 / Fold change vs veh, KIAA1704 /// LOC100996395 / RFU, ING1 / Fold change vs veh, ING1 / RFU, TRMT61B / Fold change vs veh, TRMT61B / RFU, FUBP3 / Fold change vs veh, FUBP3 / RFU, TP53 / Fold change vs veh, TP53 / RFU, TNKS2 / Fold change vs veh, TNKS2 / RFU, ZFP14 / Fold change vs veh, ZFP14 / RFU, ACTR2 / Fold change vs veh, ACTR2 / RFU, PPP3R1 / Fold change vs veh, PPP3R1 / RFU, PIK3R1 / Fold change vs veh, PIK3R1 / RFU, HNRNPA1 / Fold change vs veh, HNRNPA1 / RFU, RNF170 / Fold change vs veh, RNF170 / RFU, ZNF28 / Fold change vs veh, ZNF28 / RFU, RNGTT / Fold change vs veh, RNGTT / RFU, OGT / Fold change vs veh, OGT / RFU, BRD1 / Fold change vs veh, BRD1 / RFU, MARS / Fold change vs veh, MARS / RFU, ZNF655 / Fold change vs veh, ZNF655 / RFU, FAHD1 / Fold change vs veh, FAHD1 / RFU, BDP1 / Fold change vs veh, BDP1 / RFU, LRRCC1 / Fold change vs veh, LRRCC1 / RFU, ARID1A / Fold change vs veh, ARID1A / RFU, ZNF146 / Fold change vs veh, ZNF146 / RFU, ZNF330 / Fold change vs veh, ZNF330 / RFU, GPN3 / Fold change vs veh, GPN3 / RFU, C9orf123 / Fold change vs veh, C9orf123 / RFU, N4BP2L2 / Fold change vs veh, N4BP2L2 / RFU, ARFIP1 / Fold change vs veh, ARFIP1 / RFU, FAM179B / Fold change vs veh, FAM179B / RFU, BCL10 / Fold change vs veh, BCL10 / RFU, UHRF1BP1L / Fold change vs veh, UHRF1BP1L / RFU, BET1 / Fold change vs veh, BET1 / RFU, CNOT2 / Fold change vs veh, CNOT2 / RFU, ZNF268 / Fold change vs veh, ZNF268 / Fold change vs veh, ZNF507 / RFU, DGCR2 / Fold change vs veh, DGCR2 / RFU, WDSUB1 / Fold change vs veh, WDSUB1 / Fold change vs veh, HSP90B1 /// MIR3652 / RFU, ADSS / Fold change vs veh, ADSS / RFU, GK / Fold change vs veh, GK / RFU, ZNF148 / Fold change vs veh, ZNF148 / RFU, TAF9 / Fold change vs veh, TAF9 / RFU, SLC1A5 / Fold change vs veh, SLC1A5 / RFU, SLMO2 / Fold change vs veh, SLMO2 / RFU, ABCC4 / Fold change vs veh, ABCC4 / RFU, LOC101060439 /// RAP1B / Fold change vs veh, LOC101060439 /// RAP1B / RFU, RFX7 / Fold change vs veh, RFX7 / RFU, GTPBP10 / Fold change vs veh, GTPBP10 / RFU, CNEP1R1 / Fold change vs veh, CNEP1R1 / RFU, BIVM-ERCC5 /// ERCC5 / Fold change vs veh, BIVM-ERCC5 /// ERCC5 / RFU, ILF3 / Fold change vs veh, ILF3 / RFU 11762660_at / Fold change /veh 11762660_at / RFU VCAN (11757783_s_at) / Fold change /veh VCAN (11757783_s_at) / RFU DDX43 (11728927_at) / Fold change /veh DDX43 (11728927_at) / RFU KRT8 (11758188_x_at) / Fold change /veh KRT8 (11758188_x_at) / RFU NKD1 (11759106_at) / Fold change /veh NKD1 (11759106_at) / RFU SRD5A1 (11742802_a_at) / Fold change /veh SRD5A1 (11742802_a_at) / RFU TPSAB1 /// TPSB2 (11721975_s_at) / Fold change /veh TPSAB1 /// TPSB2 (11721975_s_at) / RFU GSTM3 (11746129_a_at) / Fold change /veh GSTM3 (11746129_a_at) / RFU IL23R (11737362_x_at) / Fold change /veh IL23R (11737362_x_at) / RFU TMEM51 (11727254_a_at) / Fold change /veh TMEM51 (11727254_a_at) / RFU PIWIL2 (11732686_x_at) / Fold change /veh PIWIL2 (11732686_x_at) / RFU ORM1 (11744905_x_at) / Fold change /veh ORM1 (11744905_x_at) / RFU CCDC152 (11743942_at) / Fold change /veh CCDC152 (11743942_at) / RFU ECM1 (11717891_a_at) / Fold change /veh ECM1 (11717891_a_at) / RFU IL23R (11748794_a_at) / Fold change /veh IL23R (11748794_a_at) / RFU TNFAIP8L3 (11732012_x_at) / Fold change /veh TNFAIP8L3 (11732012_x_at) / RFU MBOAT4 (11741988_at) / Fold change /veh MBOAT4 (11741988_at) / RFU 11764193_at / Fold change /veh 11764193_at / RFU TMEM53 (11763286_at) / Fold change /veh TMEM53 (11763286_at) / RFU MAGEB2 (11727129_at) / Fold change /veh MAGEB2 (11727129_at) / RFU TMEM200A (11744735_a_at) / Fold change /veh TMEM200A (11744735_a_at) / RFU CCDC152 (11751479_a_at) / Fold change /veh CCDC152 (11751479_a_at) / RFU FAM211A (11726209_a_at) / Fold change /veh FAM211A (11726209_a_at) / RFU RGS16 (11746705_a_at) / Fold change /veh RGS16 (11746705_a_at) / RFU VCAN (11755009_s_at) / Fold change /veh VCAN (11755009_s_at) / RFU RHOB (11743442_s_at) / Fold change /veh RHOB (11743442_s_at) / RFU RGS16 (11720943_a_at) / Fold change /veh RGS16 (11720943_a_at) / RFU RGS16 (11720944_at) / Fold change /veh RGS16 (11720944_at) / RFU, VPS4B / Fold change vs veh, VPS4B / RFU, CREB1 / Fold change vs veh, CREB1 / RFU, DNAJC13 / Fold change vs veh, DNAJC13 / RFU, GNAQ / Fold change vs veh, GNAQ / RFU, CDK5R1 / Fold change vs veh, CDK5R1 / RFU, ZRANB3 / Fold change vs veh, ZRANB3 / RFU, CUL4A / Fold change vs veh, CUL4A / RFU, CCNY / Fold change vs veh, CCNY / RFU, UFL1 / Fold change vs veh, UFL1 / RFU, COG3 / Fold change vs veh, COG3 / RFU, DIAPH2 / Fold change vs veh, DIAPH2 / RFU, SKA2 / Fold change vs veh, SKA2 / RFU, AFF3 / Fold change vs veh, AFF3 / RFU, LMF1 / Fold change vs veh, LMF1 / RFU, IPO11 / Fold change vs veh, IPO11 / RFU, DFFB / Fold change vs veh, DFFB / RFU, FOXP1 / Fold change vs veh, FOXP1 / RFU, CARD8 / Fold change vs veh, CARD8 / RFU, STRN3 / Fold change vs veh, STRN3 / RFU, ADK / Fold change vs veh, ADK / RFU, RASSF2 / Fold change vs veh, RASSF2 / RFU, WIPF1 / Fold change vs veh, WIPF1 / RFU, LARP1B / Fold change vs veh, LARP1B / RFU, RASA1 / Fold change vs veh, RASA1 / RFU, RB1 / Fold change vs veh, RB1 / RFU, PPFIA1 / Fold change vs veh, PPFIA1 / RFU, MAT2A / Fold change vs veh, MAT2A / RFU, CCT5 / Fold change vs veh, CCT5 / RFU, WDR92 / Fold change vs veh, WDR92 / RFU, CUX1 / Fold change vs veh, CUX1 / RFU, TTC7A / Fold change vs veh, TTC7A / RFU, TMEM135 / Fold change vs veh, TMEM135 / RFU, DEPTOR / Fold change vs veh, DEPTOR / RFU, CPM / Fold change vs veh, CPM / RFU, DNAJB6 / Fold change vs veh, DNAJB6 / RFU, CACNA2D3 / Fold change vs veh, CACNA2D3 / RFU, DTX4 / Fold change vs veh, DTX4 / RFU, TFCP2 / Fold change vs veh, TFCP2 / RFU, GMCL1 /// GMCL1P1 / Fold change vs veh, GMCL1 /// GMCL1P1 / RFU, AEBP2 / Fold change vs veh, AEBP2 / RFU, SNHG1 /// SNORD22 /// SNORD25 /// SNORD26 /// SNORD27 /// SNORD28 /// SNORD29 /// SNORD31 / Fold change vs veh, SNHG1 /// SNORD22 /// SNORD25 /// SNORD26 /// SNORD27 /// SNORD28 /// SNORD29 /// SNORD31 / Fold change (Aza/veh), C12orf56 (ProbeSet 11735607_a_at) / Fold change (ACY-1035/veh), C12orf56 (ProbeSet 11735607_a_at) / Fold change (Aza/veh), FGFR1OP (ProbeSet 11751329_s_at) / Fold change (ACY-1035/veh), FGFR1OP (ProbeSet 11751329_s_at) / Fold change (Aza/veh), VPS36 (ProbeSet 11739960_a_at) / Fold change (ACY-1035/veh), VPS36 (ProbeSet 11739960_a_at) / RFU SYPL1 (11715823_x_at) / Fold change /veh SYPL1 (11715823_x_at) / RFU IGFBP7 (11715501_s_at) / Fold change /veh IGFBP7 (11715501_s_at) / RFU REEP3 (11722064_at) / Fold change /veh REEP3 (11722064_at) / RFU IGLL1 (11728026_x_at) / Fold change /veh IGLL1 (11728026_x_at): dose or concentration left out as unconfirmed
Settings: ProbeSet 11733108_at; LIST D

`Nc1ccc(-c2cccs2)cc1NC(=O)c1ccc2c(c1)cc(C1CC1)n2CCN1CCOCC1` [ACY-1035] was tested, and the “RFU, GNAQ” value was 275.03 RFU.
